# Reference: patent publication US20060269504A1, “Use of alkyl resorcinols in the treatment of acne” (priority 2003, published 2006)
# “Also recorded” adds a separate entry of the source. Read-outs that look alike come from different tables or passages of the source.
# Columns and labels:
# [1] = test system: P. acnes G63 and P. avidum NCTC 11864; test: In vitro propionibacterial model: glucose biotransformation to propionic acid (GC) and culture viability (TVC); assay type: cell-based; conditions: for BIC50 MoA(s), mode(s) of action at BIC50 levels: P. acnes G63 and P. avidum NCTC 11864, by reference to culture viability data; for BIC50, mean concentration at 50% inhibition of glucose biotransformation to propionic acid: mean of P. acnes G63 and P. avidum NCTC 11864, anaerobic, 35° C.; for BIC50, mean concentration at 50% inhibition of glucose biotransformation to propionic acid / MBC, range of minimum bactericidal levels: 24 h; for MBC, range of minimum bactericidal levels: range for P. acnes G63 and P. avidum NCTC 11864, minimum level effecting >3 log10 reduction in viability
# Procedure: (§1) The propionibacterial model involved the use of 7 ml glass vials, to which were added 6.0 ml synthetic medium (see below), supplemented with glucose substrate (2.0 mg/ml). The corynebacterial model involved the use of 250 ml baffled shake flasks, to which were added 30.0 ml synthetic medium (see below), supplemented with fatty acid substrate (2.0 mg/ml pentadecanoic acid). To each vial or flask (other than controls) was also added one of the indicated test materials, from a 1.0-10.0% (w/v) stock solution in 50% (v/v) ethanol. Each assay was inoculated with fresh bacterial biomass (Propionibacterium acnes G63 [skin isolate], P. avidum NCTC 11864 or Corynebacterium sp. NCIMB 40928), pre-grown for 24-48 h, under aerobic (corynebacteria) or anaerobic (propionibacteria) conditions, in TSBT (see below), to give starting optical densities (A590) of ˜1.0. Following inoculation, the vials and flasks were incubated aerobically (corynebacteria) or anaerobically (propionibacteria) at 35° C., with agitation (120 rpm), for 24 h. After this time, culture viability was determined by total viable count (TVC) analysis on ACX plates (see below), following serial dilution in quarter-strength Ringers solution. Also, at the end of each experiment, the extent of glucose or fatty acid biotransformation to propionic acid was measured by capillary gas chromatography (GC) (see below), and the dose response data used to calculate, for each active ingredient, a BIC so value (50% biotransformation inhibition concentration). The mode of action (bacteriostatic or bactericidal) at this level was elucidated by reference to culture viability data, which was also used to determine the MBC (minimum bactericidal concentration), defined as the minimum level of each active effecting a >3 log10 ml^31 1 reduction in viability (Tables 1 & 2). Finally, the data for P. acnes G63 and P. avidum NCTC 11864 were combined to generate mean and range anti-propionibacterial values (Table 1).
# (§2) KH2PO4 (1.6); (NH4)2HPO4 (5.0); Na2SO4 (0.38); KNO3 (0.1); NaHCO3 (1.0); sodium thioglycolate (1.0); sodium pyruvate (1.0); yeast nitrogen base (Difco) (3.35); MgCl2.6H2O (0.5).
# (§3) Tryptone soya broth (Merck) (30.0); yeast extract (Beta Lab) (10.0); Tween 80™ (5.0).
# (§4) blood agar base no. 2 (Oxoid) (39.5); yeast extract (Beta Lab) (3.0); glucose (2.0); Tween 80 ™ (5.0); defibrinated horse blood (50 ml/l).
# (§5) 1.0 ml aliquots from each assay vial were transferred into sampling tubes, an internal standard (1.0 mg/ml caproic acid) added to each tube, and the culture medium acidified (pH˜2) by the addition of HCl. Liquid-liquid extraction was then carried out using 2 vol (2 ml) ethyl acetate, with organic and aqueous phases being resolved by centrifugation (2000 rpm, 2 min). ˜0.75 ml of each organic (upper) phase was then transferred to a fresh sampling tube prior to analysis on a Perkin Elmer 8000 (Series 2) GC fitted with a 15 m×0.32 mm (internal diameter) FFAP fused silica capillary column (film thickness 0.25 μm) (Quadrex). Metabolite levels were quantified by comparison of peak areas with known amounts of both internal (caproic acid) and externally-run (propionic acid) standards. GC running conditions as indicated: injector (split/splitless), 300° C.; detector (flame ionisation), 300° C.; oven, 80° C. (2 min), 80-155° C. (7.5° C./min), 155° C. (1 min); injection volume, 1.0 μl.
# [2] = test system: Corynebacterium sp. NCIMB 40928; test: In vitro corynebacterial model: pentadecanoic acid biotransformation to propionic acid (GC) and culture viability (TVC); assay type: cell-based; conditions: for BIC50, concentration at 50% inhibition of pentadecanoic acid biotransformation to propionic acid: aerobic, 35° C.; for BIC50 MoA(s), mode of action at BIC50 level: by reference to culture viability data; for MBC: read-out: MBC, minimum bactericidal levels
# Procedure: as §1, §2, §3, §4, §5
# [3] = Corynebacterium sp. NCIMB 40928, 24 h
# [4] = Corynebacterium sp. NCIMB 40928
SMILES,"BIC50 MoA(s), mode(s) of action at BIC50 levels [1]","selectivity for Propionibacterium spp. compared to other bacteria normally present on the skin ([1]; comparison of Tables 1 and 2, versus Triclosan)","BIC50, mean concentration at 50% inhibition of glucose biotransformation to propionic acid [1] [ppm]","MBC, range of minimum bactericidal levels [1]",anti-propionibacterial properties compared with Triclosan ([1]; summary of Table 1),"BIC50, concentration at 50% inhibition of pentadecanoic acid biotransformation to propionic acid [2, 3] [ppm]","BIC50 MoA(s), mode of action at BIC50 level [2, 4]","MBC ([2]; NCIMB40928, Corynebacterium sp. NCIMB 40928, minimum level effecting >3 log10 reduction in viability, 24 h) [mg/L]","MBC ([2]; Corynebacterium, NCIMB40928, 24 h) [mg/L]"
"CCCCCCc1ccc(O)cc1O [4-Hexylresorcinol, 4-hexylresorcinol]",Bacteriostatic/; also recorded: Bactericidal,far greater selectivity than Triclosan,42,50-100 ppm,as good as those of Triclosan,118,Bacteriostatic,> 500,–
"Oc1cc(Cl)ccc1Oc1ccc(Cl)cc1Cl [Triclosan, 2,4,4′-trichloro-2′-hydroxydiphenyl ether, reference compound]",Bactericidal; also recorded: Bacteriostatic/,–,39,50-100 ppm,–,20,Bacteriostatic,–,50
